Test results taken from ChEMBL document CHEMBL3797079, “Synergistic reduction of HIV-1 infectivity by 5-azacytidine and inhibitors of ribonucleotide reductase” (Bioorg Med Chem, 2016).
Active and inactive are the calls of the source. The calls are words filed in the database; no cut-off is given here.

What was measured:
[1] = system: Human immunodeficiency virus 1; assay: (§1) Antiviral activity against VSV-G pseudotyped HIV-1 NL4-3 infected in human U373-MAGI cells assessed as Gag mutation at 50 uM incubated for 4 hrs prior to infection measured at 72 hrs post infection by illumina sequencing method (reference value: 18.4%); type: functional
[2] = system: Human immunodeficiency virus 1; assay: Potentiation of 5-Aza-dC-induced antiviral activity against VSV-G pseudotyped HIV-1 NL4-3 infected in human U373-MAGI cells assessed as reduction in U5-gag level at 50 uM after 2 to 72 hrs by qPCR method; type: functional, organism-based
[3] = system: Human immunodeficiency virus 1; assay: as §1, with “Potentiation of 5-Aza-C-induced antiviral” for “Antiviral”, “preinfection followed by 5-Aza-C addition for 2 hrs preinfection and subsequent viral” for “prior to”; type: functional
[4] = system: U373-MAGI; assay: Reduction in dGTP level in human U373-MAGI cells at 200 uM after 6 hrs by LC-MS/MS analysis; type: functional, cell-based
[5] = system: U373-MAGI; assay: Increase in 5-aza-dCTP/dCTP ratio in human U373-MAGI cells at 200 uM preincubated for 2 hrs followed by 5-aza-dC addition measured after 4 hrs by LC-MS/MS analysis relative to 5-aza-dC; type: functional, cell-based
[6] = system: U373-MAGI; assay: Reduction in dTTP level in human U373-MAGI cells at 200 uM after 6 hrs by LC-MS/MS analysis; type: functional, cell-based
[7] = system: Human immunodeficiency virus 1; assay: Antiviral activity against VSV-G pseudotyped HIV-1 NL4-3 infected in human U373-MAGI cells assessed as reduction in U5-gag level at 50 uM measured at 12 to 72 hrs post infection by qPCR method; type: functional, organism-based
[8] = system: Human immunodeficiency virus 1; assay: Antiviral activity against VSV-G pseudotyped HIV-1 NL4-3 infected in human U373-MAGI cells assessed as reduction in gag level at 50 uM measured at 12 to 72 hrs post infection by qPCR method; type: functional, organism-based
[9] = system: U373-MAGI; assay: Reduction in dRGU-TP level in human U373-MAGI cells at 50 uM preincubated for 2 hrs followed by 5-aza-C addition measured after 4 hrs by LC-MS/MS analysis; type: functional, cell-based
[10] = system: Human immunodeficiency virus 1; assay: Antiviral activity against VSV-G pseudotyped HIV-1 NL4-3 infected in human U373-MAGI cells assessed as increase in frequency of A to T transversion at 50 uM incubated for 4 hrs prior to infection measured at 72 hrs post infection by illumina sequencing method relative to control; type: functional
[11] = system: Human immunodeficiency virus 1; assay: (§2) Potentiation of 5-Aza-C-induced antiviral activity against VSV-G pseudotyped HIV-1 NL4-3 infected in human U373-MAGI cells assessed as Env mutation at 50 uM incubated for 4 hrs preinfection followed by 5-Aza-C addition for 2 hrs preinfection and subsequent viral infection measured at 72 hrs post infection by illumina sequencing method (reference value: 21.4%); type: functional
[12] = system: U373-MAGI; assay: Reduction in dCTP level in human U373-MAGI cells at 200 uM after 6 hrs by LC-MS/MS analysis; type: functional, cell-based
[13] = system: Human immunodeficiency virus 1; assay: Antiviral activity against VSV-G pseudotyped HIV-1 NL4-3 infected in human U373-MAGI cells assessed as increase in frequency of […] transversion at 50 uM incubated for 4 hrs prior to infection measured at 72 hrs post infection by illumina sequencing method relative to control; type: functional
[14] = Reduction in dATP level in human U373-MAGI cells at 50 uM after 6 hrs by LC-MS/MS analysis; type: functional; design: scale not given: the % may be the effect or the level left
[15] = system: U373-MAGI; assay: Effect on 5-aza-dCTP level in human U373-MAGI cells at 200 uM preincubated for 2 hrs followed by 5-aza-dC addition measured after 4 hrs by LC-MS/MS analysis; type: functional, cell-based
[16] = system: Human immunodeficiency virus 1; assay: (§3) Potentiation of 5-Aza-C-induced antiviral activity against VSV-G pseudotyped HIV-1 NL4-3 infected in human U373-MAGI cells assessed as reduction in viral infectivity at 25 to 100 uM preincubated for 2 hrs followed by 5-Aza-C addition for 2 hrs and subsequent viral infection measured at 72 hrs post infection by flow cytometric analysis; type: functional, organism-based
[17] = system: Human immunodeficiency virus 1; assay: Antiviral activity against VSV-G pseudotyped HIV-1 NL4-3 infected in human U373-MAGI cells assessed as reduction in viral infectivity preincubated for 2 to 8 hrs followed by viral infection measured at 72 hrs post infection by flow cytometric analysis; type: functional, organism-based
[18] = system: Human immunodeficiency virus 1; assay: as §2, with “[…]” for “5-Aza-C-induced”; type: functional
[19] = system: Human immunodeficiency virus 1; assay: Antiviral activity against VSV-G pseudotyped HIV-1 NL4-3 infected in human U373-MAGI cells assessed as Env mutation at 50 uM incubated for 4 hrs prior to infection measured at 72 hrs post infection by illumina sequencing method (reference value: 21.4%); type: functional
[20] = system: Human immunodeficiency virus 1; assay: as §3, with “infectivity at 50 uM preincubated” for “infectivity at 25 to 100 uM preincubated”, “for 2 to 8 hrs followed” for “for 2 hrs followed”; type: functional, organism-based
[21] = system: Human immunodeficiency virus 1; assay: as §2, with “increase in total” for “Env”, “mutation frequency” for “mutation”, “relative to control” for “(reference value: 21.4%)”; type: functional, organism-based
[22] = system: U373-MAGI; assay: Reduction in dGTP level in human U373-MAGI cells at 50 uM after 6 hrs by LC-MS/MS analysis; type: functional, cell-based
[23] = system: U373-MAGI; assay: Effect on dRGU-TP level in human U373-MAGI cells at 200 uM preincubated for 2 hrs followed by 5-aza-dC addition measured after 4 hrs by LC-MS/MS analysis; type: functional, cell-based
[24] = system: Human immunodeficiency virus 1; assay: as §2, with “5-Aza-dC-induced” for “5-Aza-C-induced”, “Pol” for “Env”, “18.5%)” for “21.4%)”; type: functional
[25] = system: Human immunodeficiency virus 1; assay: Antiviral activity against VSV-G pseudotyped HIV-1 NL4-3 infected in human U373-MAGI cells assessed as increase in mutation frequency at 50 uM incubated for 4 hrs prior to infection measured at 72 hrs post infection by illumina sequencing method; type: functional
[26] = system: Human immunodeficiency virus 1; assay: Potentiation of 5-Aza-dC-induced antiviral activity against VSV-G pseudotyped HIV-1 NL4-3 infected in human U373-MAGI cells assessed as reduction in gag level at 50 uM after 2 to 72 hrs by qPCR method; type: functional, organism-based
[27] = system: Human immunodeficiency virus 1; assay: Antiviral activity against VSV-G pseudotyped HIV-1 NL4-3 infected in human U373-MAGI cells assessed as increase in frequency of T to G transversion at 50 uM incubated for 4 hrs prior to infection measured at 72 hrs post infection by illumina sequencing method relative to control; type: functional
[28] = system: Human immunodeficiency virus 1; assay: Antiviral activity against VSV-G pseudotyped HIV-1 NL4-3 infected in human U373-MAGI cells assessed as increase in frequency of C to A transversion at 50 uM incubated for 4 hrs prior to infection measured at 72 hrs post infection by illumina sequencing method relative to control; type: functional
[29] = system: U373-MAGI; assay: Effect on 5-aza-dCTP level in human U373-MAGI cells at 50 uM preincubated for 2 hrs followed by 5-aza-dC addition measured after 4 hrs by LC-MS/MS analysis; type: functional, cell-based
[30] = system: Human immunodeficiency virus 1; assay: Antiviral activity against VSV-G pseudotyped HIV-1 NL4-3 infected in human U373-MAGI cells assessed as Vif mutation at 50 uM incubated for 4 hrs prior to infection measured at 72 hrs post infection by illumina sequencing method (reference value: 19.2%); type: functional

Oc1ccc(/C=C/c2cc(O)cc(O)c2)cc1 [RESVERATROL]
Activity [1]: 16.6%
Activity [2]: Active
Activity [3]: 15.5%
Activity [4]: Active
Activity [5]: Active
Activity [6]: Active
Activity [7]: inactive
Activity [8]: inactive
Activity [9]: inactive
fold change (FC) [10]: 1.8
Activity [11]: 22.8%
Activity [12]: Active
fold change (FC) [13]: 2
Activity [14]: 30%
Activity [15]: inactive
Activity [16]: Active
Activity [17]: Active
Activity [18]: 20.1%
Activity [19]: 22.5%
Activity [20]: Active
Activity [21]: inactive
Activity [22]: inactive
Activity [23]: inactive
Activity [24]: 18.9%
fold change (FC) [25]: 1.5
Activity [26]: Active
fold change (FC) [27]: 3.2
fold change (FC) [28]: 1.3
Activity [29]: inactive
Activity [30]: 23.4%
